Results: patent US20230357761A1, “ACTIVATORS OF TYPE III CAS PROTEINS” (THE REGENTS OF THE UNIVERSITY OF CALIFORNIA, priority 2020, published 2023)
[5mC] = 5-methylcytosine; d = 2'-deoxy (DNA); r = 2'-OH (RNA); f = 2'-fluoro

Tests used:
[1] = target: T1, T. thermophilus Csm6 (TtCsm6) (Thermus thermophilus, UniProt Q53W17); assay: Cas13-coupled TtCsm6 activation assay, fluorescence of cleaved polyC RNA reporter; assay type: biochemical; settings: for kinetics of development of fluorescent signal over time / duration and level of fluorescent signal: FIG. 2; for kinetics of development of fluorescent signal over time: 20 nM Cas13 RNP, 100 nM Csm6, 100 pM Cas13 activator [R010], 200 nM C5 reporter, 2 μM Type III accessory nuclease activator, IGI buffer, versus unmodified NCR142; for duration and level of fluorescent signal: same reaction as E1, versus unmodified NCR142, which was used at 4 times the concentration
T1 sequence (Q53W17 1-464): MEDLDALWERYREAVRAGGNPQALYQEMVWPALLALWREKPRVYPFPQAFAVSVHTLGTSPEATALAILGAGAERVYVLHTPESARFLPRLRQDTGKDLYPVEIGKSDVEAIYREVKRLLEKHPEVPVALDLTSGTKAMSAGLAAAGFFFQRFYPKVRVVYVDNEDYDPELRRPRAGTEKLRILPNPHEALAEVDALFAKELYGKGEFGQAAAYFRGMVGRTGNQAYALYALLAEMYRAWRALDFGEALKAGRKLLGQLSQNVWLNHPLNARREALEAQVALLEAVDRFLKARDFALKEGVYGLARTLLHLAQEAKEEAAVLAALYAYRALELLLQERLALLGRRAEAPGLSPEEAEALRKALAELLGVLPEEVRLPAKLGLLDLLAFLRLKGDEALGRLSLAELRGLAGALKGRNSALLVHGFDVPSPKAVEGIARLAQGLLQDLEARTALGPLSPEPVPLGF
Procedure: To test the impact of modifications of the Type III accessory nuclease activators, the following system was used (see FIG. 1). Cas13 ribonucleoprotein complexes (RNP) were assembled using LbuCas13 protein and guides at room temperature at a concentration of 0.5 μM Cas13 in 1× reaction buffer.
In some experiments, the 1× reaction buffer comprised 20 mM HEPES, pH 6.8, 50 mM KCl, 5 mM MgCl2, 100 μg/mL BSA, 0.01% Igepal CA, 2% glycerol (“IGI buffer”) while in other experiments, the 1× reaction buffer comprised 20 mM HEPES, pH 6.8, 50 mM KCl, 5 mM MgCl2, 5% glycerol (“Ott buffer”). Once assembled, the RNPs were diluted with 1× reaction buffer to 10× the final [RNP] in the reaction (200 nM for 20 nM final concentration). Concentrated T. thermophilus Csm6 (TtCsm6) protein was also diluted to 10× the concentration (1 μM for 100 nM final concentration) in 1× reaction buffer. The activator mix was assembled on ice, containing 20× concentration of the Cas13 activator, 20× concentration of the secondary Csm6 activator, and 10× of a polyC RNA reporter (6-FAM-CCCCC-Iowa Black®, Integrated DNA Technologies) in 1× reaction buffer. The proteins were then mixed together to make an RNP/protein master mix in 1× reaction buffer. Volumes to use were determined such that 15 μL of this master mix was added to 5 μL of the activator mix for a final volume of 20 μL for the reaction. Reactions were performed in triplicate. The RNP master mix was equilibrated at room temperature for 10-15 minutes. 15 μL of the RNP/protein master mix was then added to 5 μL of the activator master mix (pre-loaded into 384-well low-volume flat-bottom black assay plate, Corning) to start the reaction. Fluorescence of the unquenched 6-FAM group (excitation 485 nm, emission 535 or 528 nm) was monitored over 1-2 hours (one reading every 1.5 or 2 min) in a Tecan or Biotek Cytation 5 plate reader at 37° C. An increase in fluorescence correlates with dequenching of the FAM due to RNA cleavage by TtCsm6.
NCR142, NCR372, NCR373 and NCR374 were compared in the system described above. Specifically, 20 nM Cas13 RNP (assembled at a ratio of 2:1 guide to protein), 100 nM Csm6, 100 pM Cas13 activator [R010]], 200 nM C5 RNA reporter (i.e., 5′-6-FAM-CCCCC-Iowa Black-3′, Integrated DNA Technologies), 2 μM Type III accessory nuclease activator, 1×IGI buffer were used, with the experiment monitored on a Tecan Spark.
Next, several different 2′-deoxy modified Type III accessory nuclease activators were compared where the activators had 1 to 3 modifications and the modifications were in different locations (see Table 3 and FIG. 4). In these experiments, 20 nM Cas13 RNPs using a guide, GJK073, targeting a short synthetic RNA target, GJK075, was used (see Table 2). In addition, 100 nM Csm6 was used, plus 0 to 200 pM Cas13 activator (GJK075), 2 μM Csm6 activator, 200 nM C5 reporter, and Cas13 1× buffer (IGI). The experiments were carried out at 37° C. in low volume flat-bottom black plates and fluorescence was measured on a Biotek Cytation 5.
The NCR497 activator was also tested over a range of Type III accessory nuclease activator concentrations and Type VI nuclease activator concentrations. In these experiments, 20 nM Cas13 RNPs comprising the NCR316 guide at a ratio of 2:1 protein to guide were used. In addition, 100 nM TtCsm6 and 200 nM C5 reporter was used where the reaction was carried out in low-volume, flat-bottom plates at 37° C. analyzed on a Biotek citation 5. Type VI nuclease activator (aNCR316) was used at 2 pM or 200 pM concentrations.
A Type III accessory nuclease activator comprising a single 2′-fluoro modified nucleotide was also modified to create an activator with a single cleavage location for the Cas13 trans nuclease activity. In this Type III accessory nuclease activator, the poly U stretch was replaced with a single U nucleotide followed by C nucleotides. […]

Csm6 = target: T2, Csm6 (Thermus thermophilus, UniProt Q53W17); assay: Sensitivity of Cas13 RNA detection with and without Csm6 and its Type III accessory nuclease activator; assay type: biochemical, T. thermophilus; settings: 37° C.
T2 sequence (Q53W17 1-464): T1 sequence (Q53W17 1-464)
Procedure: In some experiments, the 1× reaction buffer comprised 20 mM HEPES, pH 6.8, 50 mM KCl, 5 mM MgCl2, 100 μg/mL BSA, 0.01% Igepal CA, 2% glycerol (“IGI buffer”) while in other experiments, the 1× reaction buffer comprised 20 mM HEPES, pH 6.8, 50 mM KCl, 5 mM MgCl2, 5% glycerol (“Ott buffer”). Once assembled, the RNPs were diluted with 1× reaction buffer to 10× the final [RNP] in the reaction (200 nM for 20 nM final concentration). Concentrated T. thermophilus Csm6 (TtCsm6) protein was also diluted to 10× the concentration (1 μM for 100 nM final concentration) in 1× reaction buffer. The activator mix was assembled on ice, containing 20× concentration of the Cas13 activator, 20× concentration of the secondary Csm6 activator, and 10× of a polyC RNA reporter (6-FAM-CCCCC-Iowa Black®, Integrated DNA Technologies) in 1× reaction buffer. The proteins were then mixed together to make an RNP/protein master mix in 1× reaction buffer. Volumes to use were determined such that 15 μL of this master mix was added to 5 μL of the activator mix for a final volume of 20 μL for the reaction. […] Fluorescence of the unquenched 6-FAM group (excitation 485 nm, emission 535 or 528 nm) was monitored over 1-2 hours (one reading every 1.5 or 2 min) in a Tecan or Biotek Cytation 5 plate reader at 37° C. An increase in fluorescence correlates with dequenching of the FAM due to RNA cleavage by TtCsm6. […]

For “AfAAAUCC (metdC) (metdc) C (AAAAUCCCCC; sugars from the 5' end r1 f1 r5 d2 r1, [5mC] at 8, 9, backbone not given here) [NCR690]”, the “activity of the system” value ([1]; FIGS. 8 and 9, activator at 2, 0.2 and 0.1 μM, Cas13 activator at 200 or 2 pM) was “robust activity” and the background signal ([1]; FIGS. 8 and 9, compared to NCR497 at the same concentrations) was “higher background signal compared to the NCR497”.
With “fAfAfAAUUUUUU (AAAAUUUUUU; sugars from the 5' end f3 r7, backbone not given here) [NCR374]” the “kinetics of development of fluorescent signal over time” value [1] was “slower kinetics than the unmodified Type III accessory nuclease activator” and the “duration and level of fluorescent signal” value [1] was “longer lived and reached higher levels than the unmodified activator”.
For “AAdAAUUUUUU (AAAAUUUUUU; sugars from the 5' end r2 d1 r7, backbone not given here) [NCR654]”, the “kinetics and signal, 2′-deoxy modified activators” value ([1]; FIG. 4, guide GJK073, 0 to 200 pM Cas13 activator GJK075, 2 μM Csm6 activator, 37° C., versus unmodified activators) was “rapid kinetics and were able to achieve a high and stable signal”.
With “AfAAAUUUUUU (AAAAUUUUUU; sugars from the 5' end r1 f1 r8, backbone not given here) [NCR497]” the “kinetics, 2′-fluoro modified activators” value ([1]; FIG. 5) was “rapid and stable kinetics”, the “background signal (0 pM Cas13 activator curves)” value ([1]; FIG. 5, compared to the 2′-deoxy modified activators) was “decreased background signal” and the “signal in the reaction” value ([1]; FIGS. 6 and 7, guide NCR316, 2 pM Type VI nuclease activator aNCR316, versus NCR142 at 2 pM or 200 pM) was “better signal”. For the same substance, the “limit of detection of the Cas13 activator” value (Csm6; 50 nM Cas13 RNP (guides NCR604 and NCR612), 100 nM Csm6, 2 μM NCR497, gblock7 transcript 0-20 pM, Ott buffer) was “approximately 2 fM” and the “increase in sensitivity when Csm6 reagents were added to the Cas13 detection system” value (Csm6; FIG. 10, 200 nM Cas13 RNP (guide NCR316) alone vs plus 100 nM Csm6 and 2 μM NCR497, aNCR316 200 aM to 200 pM, IGI buffer) was 100 fold.
In the case of “dAdAdAAUUUUUU (AAAAUUUUUU; sugars from the 5' end d3 r7, backbone not given here) [NCR373]”, the “kinetics of development of fluorescent signal over time” value [1] is reported as “slower kinetics than the unmodified Type III accessory nuclease activator” and the “duration and level of fluorescent signal” value [1] is reported as “longer lived and reached higher levels than the unmodified activator”.
